Read-outs that look alike come from different tables or passages of the source.

In assay [1] the test system is MCF-7 cells. The experiment in a line: Colony formation assay, MCF-7. It counts as cell-based, human. The note with it: IC50 concentration, 10–12 days, vs control. As for the experimental part:
The colony-forming assay was performed to evaluate the effect of selected compounds on cell colonization potential of cancer cells. Briefly, cells were plated at a density of 1000–2000 (A549/MCf-7) cells per well in a six-well cell culture plate. Cells were grown for at least 24 h in cell growth medium and then incubated with IC50 concentration of selected compounds for 10–12 days at 37 °C (in a humidified 5% CO2 incubator). Control cells were treated with an equal percentage of DMSO. After 10–12 days, the cell colonies were fixed with 100% methanol and staining was performed using 0.4% crystal violet in 25% methanol. The colonies obtained was counted, plotted and compared with the controls.

Assay [2] deals with MCF-7 cells. The assay is described as follows: Trans-well cell migration assay, MCF-7. The note with it: IC50 concentration, 24 h, Boyden chamber, vs control. It counts as cell-based, human. On the procedure: Trans-well migration assay was performed using a modified Boyden chamber containing cell culture inserts (8 μm pore size, polyethylene terephthalate track-etched membrane, BD Falcon #353093). Briefly, cells were serum-starved for 3–4 h, trypsinized and suspended in a serum-free medium. In the upper chamber of cell culture insert, an equal number of cells with the IC50 dose of selected compounds or DMSO (control) were plated and in the lower chamber of well plate, 10% FBS-DMEM (for chemotaxis movement) was added. The cells were allowed to migrate for 24 h in a humidified 5% CO2 incubator at 37 °C and the migrated cells (that invaded through membrane pores) onto the lower side of Trans-well cell culture insert were fixed with methanol and staining was performed using 0.4% crystal violet in 25% methanol. The remaining cells present on the upper side of the chamber were wiped off with the help of cell scrapper/tissue wipes. Finally, the migrated cells present on the lower surface of the cell culture insert were imaged using a light microscope and counted in 3–5 random fields.

For another assay, the target named is T1, MARK4 (Homo sapiens, UniProt Q96L34).
T1 construct: MARK4 protein was expressed and purified by following previous protocols; made in house
T1 sequence (Q96L34 1-752): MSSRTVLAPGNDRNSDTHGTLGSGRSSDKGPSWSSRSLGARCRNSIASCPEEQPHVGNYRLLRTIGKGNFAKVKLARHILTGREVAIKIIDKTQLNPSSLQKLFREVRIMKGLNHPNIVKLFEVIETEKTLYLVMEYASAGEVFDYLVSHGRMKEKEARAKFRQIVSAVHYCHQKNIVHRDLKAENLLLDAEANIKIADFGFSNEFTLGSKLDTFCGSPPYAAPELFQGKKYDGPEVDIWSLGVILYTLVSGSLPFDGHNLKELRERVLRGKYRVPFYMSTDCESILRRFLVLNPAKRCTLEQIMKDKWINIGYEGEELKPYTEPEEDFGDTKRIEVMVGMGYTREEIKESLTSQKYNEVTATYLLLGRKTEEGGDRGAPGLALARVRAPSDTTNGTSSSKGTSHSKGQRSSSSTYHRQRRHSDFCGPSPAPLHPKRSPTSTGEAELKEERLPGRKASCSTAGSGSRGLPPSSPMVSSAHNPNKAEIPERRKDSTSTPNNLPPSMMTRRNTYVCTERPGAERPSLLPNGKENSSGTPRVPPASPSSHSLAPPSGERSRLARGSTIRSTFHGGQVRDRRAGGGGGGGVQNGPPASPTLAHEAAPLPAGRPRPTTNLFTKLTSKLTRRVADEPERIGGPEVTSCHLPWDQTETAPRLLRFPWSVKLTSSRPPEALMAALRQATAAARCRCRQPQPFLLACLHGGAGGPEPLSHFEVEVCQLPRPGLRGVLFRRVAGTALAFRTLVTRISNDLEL
The experiment in a line: Fluorescence quenching binding study with MARK4. The note with it: Stern–Volmer plot, ligand 0–20 μM, MARK4 5 μM. As for the experimental part:
The binding affinity of selected hydrazone derivatives with human serum albumin (HSA) and MARK4 was carried out using fluorescence binding studies as described.[39] The values of binding constant (Ka) and a number of binding sites present in protein (n) were obtained by using the modified Stern–Volmer equation from the intercept and slope, respectively.
To measure the actual binding affinity of selected ligands with MARK4 and HSA, fluorescence quenching studies were performed.[43,44] Both MARK4 and HSA contain tryptophan residues, therefore it has been used as an intrinsic fluorophore to estimate the interaction of ligand. Protein was excited at 280 nm and the emission spectrum was recorded in 300–400 nm range. With increasing ligand concentrations (0–20 μM), the fluorescence intensity of MARK4 and HSA was decreases in a concentration-dependent manner (Fig. 3 and 4), indicating a considerable binding. Values of Ka and n were calculated from fluorescence emission spectra using the Stern–Volmer plot. […]
Fig. 3 Binding of compound H4 and H19 with MARK4. (A) Fluorescence emission spectra of MARK4 (5 μM) with increasing concentrations of compound H4 and H19. (B) Stern–Volmer plot obtained from the fluorescence quenching data of MARK4 by compound H4 and H19, respectively. Protein sample was excited at 280 nm and emission for each titration was recorded in the range of 300–400 nm. […]

Assay [3] has as its system MCF-7 cells. The experiment in a line: MTT cell proliferation assay, MCF-7. It counts as cell-based. The note with it: Homo sapiens, read-out: IC50, cell proliferation, MCF-7 cells. On the procedure:
Human cell lines (HEK-293, A549 and MCF-7) were seeded and maintained in a medium supplemented with DMEM along with 10% heat-inactivated fetal bovine serum (Gibco) and 1% penicillin, streptomycin solution (Gibco), cultured in a 5% CO2 humidified incubator at 37 °C. Cell cultures were maintained and trypsinized regularly, not for more than 30 passages. MTT assay was carried out to see the effect of selected hydrazone compound treatment on the viability of non-cancerous (HEK-293) and cancerous cell lines (A549 and MCF-7) as per described method.[22,24] In brief, 6000–7000 cells per well were seeded in a 96-well plate and after 24 h growth, the cells were treated with increasing concentrations (0–200 μM) of each hydrazone (final volume of 200 μL) for 48 h at 37 °C in a humidified chamber. After 48 h, MTT was added (20 μL solution from 5 mg mL^−1 stock solution prepared in phosphate buffer saline, pH 7.4) to each well and plates were further incubated for 4–5 h at 37 °C in a CO2 incubator. The supernatant was aspirated and the formazan crystals were dissolved in 150 μL of DMSO. The absorbance (A) of final products was measured using multiplate ELISA reader (BioRad) at 570 nm. The percentage of cell viability was calculated and IC50 (50% inhibitory concentration) values of each hydrazone derivative were estimated (paclitaxel was taken as a positive control for cell proliferation studies).
Background: Formazan colour is commonly taken as a measure of viable cells.

`Cc1cc(C)c(C=NNC(=O)c2ccc(OCCN(C)C)cc2)c(C)c1` [H19]: the “number of colonies, MCF-7” value with MCF-7 cells [1] is “significantly decreased”. The “cell migration, MCF-7” value in the assay with MCF-7 cells [2] is listed as “lesser number of cells were migrated”. The Kd at MARK4 (read-out: binding constant Ka for MARK4 (converted)) is 0.0104 µM. In addition, the IC50 with MCF-7 cells [3] (MCF7, 48 h) turned out to be 34.4 µM.

With `CN(C)CCOc1ccc(C(=O)NN=Cc2ccc(Cl)cc2)cc1` [H4], in the assay on MCF-7 cells [1], the “number of colonies, MCF-7” value was “significantly decreased”. In addition, the “cell migration, MCF-7” value in the assay on MCF-7 cells [2] is reported as “lesser number of cells were migrated”. Besides, the “binding constant Ka for MARK4” value at MARK4 turned out to be 4.07e+09 M⁻¹. In the assay with MCF-7 cells [3] (MCF7, MTT, 48 h, 0–200 μM), the IC50 was 27.4 µM.
